The target in data set [1] is T1, rat histamine H3 receptors (Rattus norvegicus, UniProt Q9QYN8).
T1 construct: Frozen rat frontal brain or frozen human post-mortem frontal brain is homogenized; from tissue; host or cells: rat frontal brain membranes
In words: Rat H3 binding (3H-N-methylhistamine displacement, rat frontal brain membranes). Conditions: radioligand 1 nM 3H-N-methylhistamine, 1 hour incubation. On the procedure: The in vitro affinity of the compounds in the present invention at the rat or human histamine H3 receptors can be determined according to the following procedure. Frozen rat frontal brain or frozen human post-mortem frontal brain is homogenized in 20 volumes of cold 50 mM Tris HCl containing 2 mM MgCl2 (pH to 7.4 at 4 degrees C.). The homogenate is then centrifuged at 45,000 G for 10 minutes. The supernatant is decanted and the membrane pellet re-suspended by Polytron in cold 50 mM Tris HCl containing 2 mM MgCl2 (pH to 7.4 at 4 degrees C.) and centrifuged again. The final pellet is re-suspended in 50 mM Tris HCl containing 2 mM MgCl2 (pH to 7.4 at 25 degrees C.) at a concentration of 12 mg/mL. Dilutions of compounds are made in 10% DMSO/50 mM Tris buffer (pH 7.4) (at 10×final concentration, so that the final DMSO concentration is 1%). Incubations are initiated by the addition of membranes (200 microliters) to 96 well V-bottom polypropylene plates containing 25 microliters of drug dilutions and 25 microliters of radioligand (1 nM final concentration ^3H—N-methylhistamine). After a 1 hour incubation, assay samples are rapidly filtered through Whatman GF/B filters and rinsed with ice-cold 50 mM Tris buffer (pH 7.4) using a Skatron cell harvester. Radioactivity is quantified using a BetaPlate scintillation counter.

Counter-ions that a name gives are not always drawn.

T1 sequence (Q9QYN8 whole entry): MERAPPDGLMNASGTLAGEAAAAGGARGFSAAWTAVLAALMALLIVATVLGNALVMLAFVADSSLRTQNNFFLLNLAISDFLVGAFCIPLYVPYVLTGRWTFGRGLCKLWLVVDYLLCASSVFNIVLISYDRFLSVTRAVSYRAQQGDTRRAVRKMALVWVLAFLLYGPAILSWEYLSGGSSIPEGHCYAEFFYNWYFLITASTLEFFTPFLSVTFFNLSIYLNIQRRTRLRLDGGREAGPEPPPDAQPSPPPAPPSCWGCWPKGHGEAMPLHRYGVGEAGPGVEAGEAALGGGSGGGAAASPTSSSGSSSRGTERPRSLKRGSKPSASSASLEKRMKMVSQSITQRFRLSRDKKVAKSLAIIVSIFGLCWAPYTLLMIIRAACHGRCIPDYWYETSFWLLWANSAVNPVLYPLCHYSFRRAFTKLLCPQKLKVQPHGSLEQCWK

What is called Ki is a measure of affinity in units of concentration, obtained from inhibition or displacement. High values mean lower affinity, low ones higher affinity. With `CC(c1ccc(-c2ccc(-c3cnc(O)nc3)cc2)cc1)N1CCCC1` (stereo not drawn) [Example 90, 5-[4′-(1-Pyrrolidin-1-ylethyl)-biphenyl-4-yl]-pyrimidin-2-ol], the affinity in data set [1] corresponds to a Ki of 44 nM.
Broadly, the melting point is the temperature, or range, at which the solid turns liquid. On to `Cc1cc(C2CCCN2C)ccc1-c1ccc(CNCc2ccc(Cl)cc2)cc1` (stereo not drawn) (as salt: hydrochloride) [Example 96, (4-Chlorobenzyl)-[2′-methyl-4′-(1-methylpyrrolidin-2-yl)-biphenyl-4-ylmethyl]-amine], for which the melting point lay within 238.2 to 239.3 °C.
In data set [1], `CC(c1ccc(-c2ccc(C3CCNCC3)cc2)cc1)N1CCCC1` (racemic) [Example 72, (R)-(±)-4-[4′-(1-Pyrrolidin-1-ylethyl)-biphenyl-4-yl]-piperidine] showed a Ki of 3.5 nM.
On the same count and under the same terms, in the case of `CC(c1ccc(-c2ccc(-c3cncnc3)cc2)cc1)N1CCCC1` (racemic) [Example 7, (R)-(±)-5-[4′-(1-Pyrrolidin-1-ylethyl)-biphenyl-4-yl]-pyrimidine] it was 22.7 nM.
Same read-out and setting: in the case of `CC(c1ccc(-c2ccc(-c3ccncc3)cc2)cc1)N1CCCC1` (stereo not drawn) [Example 24, 4-[4′-(1-Pyrrolidin-1-ylethyl)-biphenyl-4-yl]-pyridine] it was 52 nM.
In turn, `Cc1cc(C2CCCN2C)ccc1-c1ccc(CN2CCCCC2)cc1` (stereo not drawn) [Example 79, 1-[2′-Methyl-4′-(1-methylpyrrolidin-2-yl)-biphenyl-4-ylmethyl]-piperidine] returned a Ki in data set [1] of 13.9 nM. This Ki lies about 3.7-fold lower than the previous one.
Regarding `Cc1cc(C2CCCN2C)ccc1-c1ccc(CNCc2ccc(Cl)cc2)cc1` (stereo not drawn) [Example 96, (4-Chlorobenzyl)-[2′-methyl-4′-(1-methylpyrrolidin-2-yl)-biphenyl-4-ylmethyl]-amine], in data set [1], the affinity corresponds to a Ki of 14.7 nM. The Ki values of the last two compounds are within 1.5-fold of each other.
Still for that read-out and setting: as for `CC(c1ccc(-c2ccc(-c3cnc(N)nc3)cc2)cc1)N1CCCC1` (stereo not drawn) [Example 93, 5-[4′-(1-Pyrrolidin-1-ylethyl)-biphenyl-4-yl]-pyrimidin-2-ylamine], the figure is 105 nM; as for `C[C@H](c1ccc(-c2ccc(-c3cccnc3)cc2)cc1)N1CCCC1` [Example 4], 35.8 nM; as for `CC(c1ccc(-c2ccc(-c3ccncc3)cc2)cc1)N(C)C` (stereo not drawn) [Example 39, Dimethyl-[1-(4′-pyridin-4-ylbiphenyl-4-yl)-ethyl]-amine], more than 140 nM.
The compound `CC(c1ccc(-c2ccc(-c3ccccc3C(=O)N(C(C)C)C(C)C)cc2)cc1)N1CCCC1` (stereo not drawn) [Example 28, 4″-(1-Pyrrolidin-1-ylethyl)-[1,1′;4′,1″]terphenyl-2-carboxylic acid diisopropylamide] gave a Ki in data set [1] of 13.6 nM.
The compound `C[C@H](c1ccc(-c2ccc(C3CCN(C)CC3)cc2)cc1)N1CCCC1` [Example 77, (R)-1-Methyl-4-[4′-(1-Pyrrolidin-1-ylethyl)-biphenyl-4-yl]-piperidine] returned a Ki in data set [1] of 24.3 nM.
The same measure, in the same setting: as for `CC(c1ccc(-c2ccc(-c3ccc(S(C)(=O)=O)cc3)cc2)cc1)N1CCCC1` (stereo not drawn) [Example 35, 1-[1-(4-Methanesulfonyl-[1,1′;4′,1″]terphenyl-4″-yl)-ethyl]-pyrrolidine], the figure is 22.7 nM.
`CC(c1ccc(-c2ccc(-c3cncnc3)cc2F)cc1)N1CCCC1` (stereo not drawn) (as salt: HCl) [Example 94, 5-[2-Fluoro-4′-(1-pyrrolidin-1-ylethyl)-biphenyl-4-yl]-pyrimidine] yielded a melting point of 179.9 to 181.3 °C.
`CC(c1ccc(-c2ccc(-c3cccnc3)cc2)cc1)N1CCCC1` (stereo not drawn) [Example 9, 3-[4′-(1-Pyrrolidin-1-ylethyl)-biphenyl-4-yl]-pyridine] yielded a Ki in data set [1] of 50 nM.
As to `CC(c1ccc(-c2ccc(-c3cnc(Cl)nc3)cc2)cc1)N1CCCC1` (stereo not drawn) [Example 91, 2-Chloro-5-[4′-(1-pyrrolidin-1-ylethyl)-biphenyl-4-yl]-pyrimidine], in data set [1], the Ki was found to be 38 nM.
As for `COc1ncc(-c2ccc(-c3ccc(C(C)N4CCCC4)cc3)cc2)cn1` (stereo not drawn) [Example 92, 2-Methoxy-5-[4′-(1-pyrrolidin-1-ylethyl)-biphenyl-4-yl]-pyrimidine], the Ki in data set [1] was determined as 42 nM.
Consider `C[C@@H](c1ccc(-c2ccc(C3CCNCC3)cc2)cc1)N1CCCC1` [Example 73, (S)-(−)4-[4′-(1-Pyrrolidin-1-ylethyl)-biphenyl-4-yl]-piperidine], for which affinity in data set [1] was put at a Ki of 72.6 nM.
In data set [1], `CCN1CCC(c2ccc(-c3ccc([C@@H](C)N4CCCC4)cc3)cc2)CC1` [Example 78, (R)-1-Ethyl-4-[4′-(1-pyrrolidin-1-ylethyl)-biphenyl-4-yl]-piperidine] registered a Ki of 21.3 nM. This Ki lies about 3.4-fold lower than the previous one.
On the same count and under the same terms, in the case of `CC(c1ccc(-c2ccc(-c3ccncc3)cc2)cc1)N1CCCC1` (racemic) [Example 1, (R)-(±)-4-[4′-(1-Pyrrolidin-1-ylethyl)-biphenyl-4-yl]-pyridine] it was 39.4 nM; in that of `CC(c1ccc(-c2ccc(C3CCNCC3)cc2)cc1)N1CCCC1` (racemic) [Example 74, (±)-4-[4′-(1-Pyrrolidin-1-yl-ethyl)-biphenyl-4-yl]-piperidine], 10 nM; in that of `CC(c1ccc(-c2ccc(-c3cncnc3)cc2F)cc1)N1CCCC1` (stereo not drawn) [Example 94, 5-[2-Fluoro-4′-(1-pyrrolidin-1-ylethyl)-biphenyl-4-yl]-pyrimidine], 23 nM.
Same read-out and setting: as for `CC(c1ccc(-c2ccc(-c3cncnc3)cc2)cc1)N1CCCC1` (stereo not drawn) [Example 20, 5-[4′-(1-Pyrrolidin-1-ylethyl)-biphenyl-4-yl]-pyrimidine], the figure is 25.2 nM; as for `C[C@@H](c1ccc(-c2ccc(-c3ccncc3)cc2)cc1)N1CCCC1` [Example 2, (S)-(−)-4-[4′-(1-Pyrrolidin-1-ylethyl)-biphenyl-4-yl]-pyridine], 137 nM; as for `COc1ncc(-c2ccc(-c3ccc([C@@H](C)N4CCCC4)cc3)cc2)c(OC)n1` [Example 5, (R)-2,4-Dimethoxy-5-[4′-(1-pyrrolidin-1-ylethyl)-biphenyl-4-yl]-pyrimidine], 45 nM.
Regarding `Cc1cc(C2CCCN2C)ccc1-c1ccc(CN2CCCCC2)cc1` (stereo not drawn) (as salt: HCl) [Example 79, 1-[2′-Methyl-4′-(1-methylpyrrolidin-2-yl)-biphenyl-4-ylmethyl]-piperidine], the melting point fell in the range of 237.1 to 240 °C.
In turn, `CC(c1ccc(-c2ccc(-c3cncnc3)cc2)cc1)N1CCCC1` (racemic) [Example 6, (±)-5-[4′-(1-Pyrrolidin-1-ylethyl)-biphenyl-4-yl]-pyrimidine] gave a Ki in data set [1] of 61.8 nM. This counts as double-digit nanomolar.

The values are drawn from patent US20050245543A1, “Histamine-3 receptor antagonists” (Pfizer Inc, priority 2004, published 2005).
